Starred links: 1 amine or outer side, 2 acyl side, 3 side chain; linkers in the order of their positions; H or OH if unused. Non-standard residues stand in square brackets, D forms with d. Residues, ends and D or L forms follow the SMILES beside them. Groups on a side chain read outwards from the residue. *: point of attachment. C18 diacid = O=C(O)CCCCCCCCCCCCCCCCC(=O)*; γGlu = O=C(O)[C@H](CCC(=O)[*:2])N[*:1]; αMeF = C[C@](N)(Cc1ccccc1)C(=O)O; AEEA = NCCOCCOCC(=O)O; Aib = CC(C)(N)C(=O)O
Columns and labels:
[1] = molecular target: human GLP-1 receptor (hGLP-1R) (Homo sapiens, UniProt P43220); assay: cAMP production (HTRF) in CHO cells expressing hGLP-1R; format: cell-based; parameters: expressed in transfected cells; settings: for EC50: Table 6, peptides modified at position 17, cAMP in CHO hGLP-1R cells, geometric mean, read-out: hGLP-1R EC50; for % Relative Potency Ratio: Table 6, % GLP-1R activity relative to GLP-1 / % GlucR activity relative to glucagon
human GLP-1 receptor (hGLP-1R), sequence (P43220 24-463): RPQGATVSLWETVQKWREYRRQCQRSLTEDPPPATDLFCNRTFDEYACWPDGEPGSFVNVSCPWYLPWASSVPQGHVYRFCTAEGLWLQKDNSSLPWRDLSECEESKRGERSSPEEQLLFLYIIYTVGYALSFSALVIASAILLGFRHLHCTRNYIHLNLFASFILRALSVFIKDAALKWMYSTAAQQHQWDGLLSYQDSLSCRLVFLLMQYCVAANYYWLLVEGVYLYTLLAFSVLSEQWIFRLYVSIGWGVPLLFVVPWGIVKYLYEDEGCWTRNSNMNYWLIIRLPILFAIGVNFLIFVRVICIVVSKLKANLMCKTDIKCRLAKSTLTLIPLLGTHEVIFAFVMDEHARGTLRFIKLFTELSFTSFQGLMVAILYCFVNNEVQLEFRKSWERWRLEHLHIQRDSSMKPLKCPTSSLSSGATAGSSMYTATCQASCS
How it was run: (§1)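 Read-out: HTRF cAMP (anti-cAMP cryptate donor, cAMP-d2 acceptor in conjugate/lysis buffer), converted to % Delta F and fitted by 4-parameter logistic for EC50. Cell densities were 1×10^5 cells/mL (hGLP-1R) or 2×10^5 cells/mL (hGCGR). Stimulation lasted 30 min at room temperature.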

[2] = molecular target: human glucagon receptor (hGCGR) (Homo sapiens, UniProt P47871); assay: cAMP production (HTRF) in CHO cells expressing hGCGR; format: cell-based; parameters: expressed in transfected cells; settings: Table 6, peptides modified at position 17; cAMP in CHO hGCGR cells; geometric mean; read-out: hGluc-R EC50
human glucagon receptor (hGCGR), sequence (P47871 26-477): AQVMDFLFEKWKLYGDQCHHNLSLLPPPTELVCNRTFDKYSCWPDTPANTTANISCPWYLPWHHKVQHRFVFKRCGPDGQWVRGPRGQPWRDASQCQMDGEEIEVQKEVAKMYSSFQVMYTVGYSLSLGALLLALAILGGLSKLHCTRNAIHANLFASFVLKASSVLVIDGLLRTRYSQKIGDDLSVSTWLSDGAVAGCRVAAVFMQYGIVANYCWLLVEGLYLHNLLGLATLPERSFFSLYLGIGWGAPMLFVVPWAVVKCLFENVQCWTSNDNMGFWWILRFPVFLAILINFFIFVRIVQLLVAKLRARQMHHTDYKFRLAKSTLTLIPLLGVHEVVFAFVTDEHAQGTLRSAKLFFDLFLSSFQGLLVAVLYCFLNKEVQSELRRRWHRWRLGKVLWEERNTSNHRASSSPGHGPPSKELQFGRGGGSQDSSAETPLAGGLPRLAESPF
How it was run: as §1

SMILES | EC50 [1] [nM] | % Relative Potency Ratio [1] | EC50 [2] [nM]
CC(C)C[C@H](NC(=O)[C@H](Cc1c[nH]c2ccccc12)NC(=O)[C@H](CCCNC(=N)N)NC(=O)[C@@H](NC(=O)[C@H](Cc1ccccc1)NC(=O)[C@H](CC(=O)O)NC(=O)[C@H](CCC(N)=O)NC(=O)[C@H](C)NC(=O)[C@H](CCCNC(=N)N)NC(=O)[C@H](CCCCNC(=O)COCCOCCNC(=O)COCCOCCNC(=O)CC[C@H](NC(=O)CCCCCCCCCCCCCCCCC(=O)O)C(=O)O)NC(=O)[C@H](CCCNC(=N)N)NC(=O)[C@H](CC(=O)O)NC(=O)[C@H](CC(C)C)NC(=O)[C@](C)(Cc1ccccc1)NC(=O)[C@H](CCCCN)NC(=O)[C@H](CO)NC(=O)[C@@H](NC(=O)[C@H](CC(=O)O)NC(=O)[C@H](CO)NC(=O)[C@@H](NC(=O)[C@H](Cc1ccccc1)NC(=O)[C@@H](NC(=O)CNC(=O)[C@H](CCC(N)=O)NC(=O)C(C)(C)NC(=O)[C@@H](N)Cc1c[nH]cn1)[C@@H](C)O)[C@@H](C)O)C(C)C)C(C)C)C(=O)N[C@@H](CC(C)C)C(=O)NC(C)(C)C(=O)N[C@H](C(=O)N[C@@H](CCC(=O)O)C(=O)O)[C@@H](C)O [Peptide 421] (H-H[Aib]QGTFTSDVSK[αMeF]LDRK([AEEA-AEEA-γGlu-C18 diacid])RAQDFVRWLL[Aib]TE-OH; N-terminus assumed) | 0.0873 | 4.1 | 0.18
CC(C)C[C@H](NC(=O)[C@H](Cc1c[nH]c2ccccc12)NC(=O)[C@H](CCCNC(=N)N)NC(=O)[C@@H](NC(=O)[C@H](Cc1ccccc1)NC(=O)[C@H](CC(=O)O)NC(=O)[C@H](CCC(N)=O)NC(=O)[C@H](C)NC(=O)[C@H](CCCNC(=N)N)NC(=O)[C@H](CCCCNC(=O)COCCOCCNC(=O)COCCOCCNC(=O)CC[C@H](NC(=O)CCCCCCCCCCCCCCCCC(=O)O)C(=O)O)NC(=O)[C@H](CCCNC(=N)N)NC(=O)[C@H](CC(=O)O)NC(=O)[C@H](CC(C)C)NC(=O)[C@](C)(Cc1ccccc1)NC(=O)[C@H](CCCCN)NC(=O)[C@H](CO)NC(=O)[C@@H](NC(=O)[C@H](CC(=O)O)NC(=O)[C@H](CO)NC(=O)[C@@H](NC(=O)[C@H](Cc1ccccc1)NC(=O)[C@@H](NC(=O)CNC(=O)[C@H](CCC(N)=O)NC(=O)C(C)(C)NC(=O)[C@@H](N)Cc1c[nH]cn1)[C@@H](C)O)[C@@H](C)O)C(C)C)C(C)C)C(=O)N[C@@H](CC(C)C)C(=O)NC(C)(C)C(=O)N[C@H](C(=O)N[C@@H](CCC(=O)O)C(N)=O)[C@@H](C)O [Peptide 422] (H-H[Aib]QGTFTSDVSK[αMeF]LDRK([AEEA-AEEA-γGlu-C18 diacid])RAQDFVRWLL[Aib]TE-NH2; N-terminus assumed) | 0.0276 | 8.9 | 0.123
CC(C)C[C@H](NC(=O)[C@H](Cc1c[nH]c2ccccc12)NC(=O)[C@H](CCCNC(=N)N)NC(=O)[C@@H](NC(=O)[C@H](Cc1ccccc1)NC(=O)[C@H](CC(=O)O)NC(=O)[C@H](CCC(N)=O)NC(=O)[C@H](C)NC(=O)[C@H](CCCNC(=N)N)NC(=O)[C@H](CCCCNC(=O)COCCOCCNC(=O)COCCOCCNC(=O)CC[C@H](NC(=O)CCCCCCCCCCCCCCCCC(=O)O)C(=O)O)NC(=O)[C@H](CCCCN)NC(=O)[C@H](CC(=O)O)NC(=O)[C@H](CC(C)C)NC(=O)[C@](C)(Cc1ccccc1)NC(=O)[C@H](CCCCN)NC(=O)[C@H](CO)NC(=O)[C@@H](NC(=O)[C@H](CC(=O)O)NC(=O)[C@H](CO)NC(=O)[C@@H](NC(=O)[C@H](Cc1ccccc1)NC(=O)[C@@H](NC(=O)CNC(=O)[C@H](CCC(N)=O)NC(=O)C(C)(C)NC(=O)[C@@H](N)Cc1c[nH]cn1)[C@@H](C)O)[C@@H](C)O)C(C)C)C(C)C)C(=O)N[C@@H](CCCCN)C(=O)NC(C)(C)C(=O)N[C@H](C(=O)N[C@@H](CCC(=O)O)C(=O)O)[C@@H](C)O [Peptide 423] (H-H[Aib]QGTFTSDVSK[αMeF]LDKK([AEEA-AEEA-γGlu-C18 diacid])RAQDFVRWLK[Aib]TE-OH; N-terminus assumed) | 0.0261 | 168.1 | 2.22
CC(C)C[C@H](NC(=O)[C@H](Cc1c[nH]c2ccccc12)NC(=O)[C@H](CCCNC(=N)N)NC(=O)[C@@H](NC(=O)[C@H](Cc1ccccc1)NC(=O)[C@H](CC(=O)O)NC(=O)[C@H](CCC(N)=O)NC(=O)[C@H](C)NC(=O)[C@H](CCCNC(=N)N)NC(=O)[C@H](CCCCNC(=O)COCCOCCNC(=O)COCCOCCNC(=O)CC[C@H](NC(=O)CCCCCCCCCCCCCCCCC(=O)O)C(=O)O)NC(=O)[C@H](CCCCN)NC(=O)[C@H](CC(=O)O)NC(=O)[C@H](CC(C)C)NC(=O)[C@](C)(Cc1ccccc1)NC(=O)[C@H](CCCCN)NC(=O)[C@H](CO)NC(=O)[C@@H](NC(=O)[C@H](CC(=O)O)NC(=O)[C@H](CO)NC(=O)[C@@H](NC(=O)[C@H](Cc1ccccc1)NC(=O)[C@@H](NC(=O)CNC(=O)[C@H](CCC(N)=O)NC(=O)C(C)(C)NC(=O)[C@@H](N)Cc1c[nH]cn1)[C@@H](C)O)[C@@H](C)O)C(C)C)C(C)C)C(=O)N[C@@H](CC(C)C)C(=O)NC(C)(C)C(=O)N[C@H](C(=O)N[C@@H](CCCCN)C(=O)O)[C@@H](C)O [Peptide 424] (H-H[Aib]QGTFTSDVSK[αMeF]LDKK([AEEA-AEEA-γGlu-C18 diacid])RAQDFVRWLL[Aib]TK-OH; N-terminus assumed) | 0.0155 | 16.5 | 0.129
CC(C)C[C@H](NC(=O)[C@H](Cc1c[nH]c2ccccc12)NC(=O)[C@H](CCCNC(=N)N)NC(=O)[C@@H](NC(=O)[C@H](Cc1ccccc1)NC(=O)[C@H](CC(=O)O)NC(=O)[C@H](CCC(N)=O)NC(=O)[C@H](C)NC(=O)[C@H](CCCNC(=N)N)NC(=O)[C@H](CCCCNC(=O)COCCOCCNC(=O)COCCOCCNC(=O)CC[C@H](NC(=O)CCCCCCCCCCCCCCCCC(=O)O)C(=O)O)NC(=O)[C@H](CCCCN)NC(=O)[C@H](CC(=O)O)NC(=O)[C@H](CC(C)C)NC(=O)[C@](C)(Cc1ccccc1)NC(=O)[C@H](CCCCN)NC(=O)[C@H](CO)NC(=O)[C@@H](NC(=O)[C@H](CC(=O)O)NC(=O)[C@H](CO)NC(=O)[C@@H](NC(=O)[C@H](Cc1ccccc1)NC(=O)[C@@H](NC(=O)CNC(=O)[C@H](CCC(N)=O)NC(=O)C(C)(C)NC(=O)[C@@H](N)Cc1c[nH]cn1)[C@@H](C)O)[C@@H](C)O)C(C)C)C(C)C)C(=O)N[C@@H](CCCCN)C(=O)N[C@@H](C)C(=O)NC(C)(C)C(=O)NCC(=O)O [Peptide 425] (H-H[Aib]QGTFTSDVSK[αMeF]LDKK([AEEA-AEEA-γGlu-C18 diacid])RAQDFVRWLKA[Aib]G-OH; N-terminus assumed) | 0.0115 | 142.3 | 0.827
CC(C)C[C@H](NC(=O)[C@H](Cc1c[nH]c2ccccc12)NC(=O)[C@H](CCCNC(=N)N)NC(=O)[C@@H](NC(=O)[C@H](Cc1ccccc1)NC(=O)[C@H](CC(=O)O)NC(=O)[C@H](CCC(N)=O)NC(=O)[C@H](C)NC(=O)[C@H](CCCNC(=N)N)NC(=O)[C@H](CCCCNC(=O)COCCOCCNC(=O)COCCOCCNC(=O)CC[C@H](NC(=O)CCCCCCCCCCCCCCCCC(=O)O)C(=O)O)NC(=O)[C@H](CCCCN)NC(=O)[C@H](CC(=O)O)NC(=O)[C@H](CC(C)C)NC(=O)[C@](C)(Cc1ccccc1)NC(=O)[C@H](CCCCN)NC(=O)[C@H](CO)NC(=O)[C@@H](NC(=O)[C@H](CC(=O)O)NC(=O)[C@H](CO)NC(=O)[C@@H](NC(=O)[C@H](Cc1ccccc1)NC(=O)[C@@H](NC(=O)CNC(=O)[C@H](CCC(N)=O)NC(=O)C(C)(C)NC(=O)[C@@H](N)Cc1c[nH]cn1)[C@@H](C)O)[C@@H](C)O)C(C)C)C(C)C)C(=O)N[C@@H](CC(C)C)C(=O)N[C@@H](CCCNC(=N)N)C(=O)NC(C)(C)C(=O)N[C@@H](CCCCN)C(=O)O [Peptide 426] (H-H[Aib]QGTFTSDVSK[αMeF]LDKK([AEEA-AEEA-γGlu-C18 diacid])RAQDFVRWLLR[Aib]K-OH; N-terminus assumed) | 0.0073 | 16.6 | 0.0612
CC(C)C[C@H](NC(=O)[C@H](Cc1c[nH]c2ccccc12)NC(=O)[C@H](CCC(N)=O)NC(=O)[C@@H](NC(=O)[C@H](Cc1ccccc1)NC(=O)[C@H](CC(=O)O)NC(=O)[C@H](CCCNC(=N)N)NC(=O)[C@H](C)NC(=O)[C@H](CCCNC(=N)N)NC(=O)[C@H](CCCCNC(=O)COCCOCCNC(=O)COCCOCCNC(=O)CC[C@H](NC(=O)CCCCCCCCCCCCCCCCC(=O)O)C(=O)O)NC(=O)[C@@H](NC(=O)[C@H](CC(=O)O)NC(=O)[C@H](CC(C)C)NC(=O)[C@](C)(Cc1ccccc1)NC(=O)[C@H](CCCCN)NC(=O)[C@H](CO)NC(=O)[C@@H](NC(=O)[C@H](CC(=O)O)NC(=O)[C@H](CO)NC(=O)[C@@H](NC(=O)[C@H](Cc1ccccc1)NC(=O)[C@@H](NC(=O)CNC(=O)[C@H](CCC(N)=O)NC(=O)C(C)(C)NC(=O)[C@@H](N)Cc1c[nH]cn1)[C@@H](C)O)[C@@H](C)O)C(C)C)[C@@H](C)O)C(C)C)C(=O)N[C@@H](CC(C)C)C(=O)N[C@@H](CCC(=O)O)C(=O)NC(C)(C)C(=O)NCC(N)=O [Peptide 427] | 0.0124 | 7.5 | 0.0472

Source: patent publication US20250353891A1 (MEDIMMUNE LIMITED, priority 2022, published 2025)
